Experimental data taken from patent publication US20220127258A1, “AROMATIC RING OR HETEROAROMATIC RING COMPOUNDS, PREPARATION METHOD THEREFOR AND MEDICAL USE THEREOF” (The National Institutes of Pharmaceutical R&D Co., Ltd., priority 2019, published 2022).

molecular target: T1, FXR (Homo sapiens, UniProt Q96RI1); assay: FXR agonistic activity, luciferase assay; format: cell-based; conditions: luc2P-GAL4-HEK293 cells transfected with pBIND-FXR, 24 hours
T1 sequence (Q96RI1 262-486 limits assumed): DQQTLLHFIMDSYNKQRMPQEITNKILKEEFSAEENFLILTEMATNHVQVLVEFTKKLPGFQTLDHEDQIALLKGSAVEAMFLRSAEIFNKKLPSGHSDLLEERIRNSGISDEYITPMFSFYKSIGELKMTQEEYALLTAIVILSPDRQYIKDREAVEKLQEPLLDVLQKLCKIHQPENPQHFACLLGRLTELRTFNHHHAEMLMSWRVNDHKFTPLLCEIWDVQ
Method: The FXR agonistic activity of the compound of the present invention was evaluated using the luciferase assay.
The experimental process comprises the follows. The luc2P-GAL4-HEK293 stably transfected cell line (the cell line was established by transfecting pGL4.35 plasmid with HEK293 cells which was then subjected to Hygromycin B screening. The cell contained 9×GAL4 UAS and firefly luciferase reporter gene. The ligand-activated LBD-GAL4 DBD fusion protein can enter the nucleus to bind to 9×GAL4 UAS and activate the transcription of the downstream luciferase reporter gene) was transferred to a 96-well plate with […] per well. pBIND-FXR (Which was constructed by inserting FXR-LBD into pFN26A-BIND hRluc-neo Flexi® vector. The plasmid was 7.5 kb in size, Amp resistant, contained FXR-LBD, and can express FXR-LBD and GAL4 DBD fusion proteins) was transfected using X-tremeGENE HP transfection reagent. The ratio of plasmid to transfection reagent was 1 μg: 2 μl. The specific amount was 100 ng of plasmid and 0.2 μl of X-tremeGENE HP transfection reagent per well. The test compounds (the highest concentration of each compound was 30 μM, 3-fold dilution, a total of 10 concentrations) were added to induce the expression of luciferase. After 24 hours, the 96-well plate containing the test cells was taken out from the incubator, and placed at room temperature. Dual-Glo® Luciferase Reagent with the volume equal to the volume of the medium in the well (80 μl/well) was added to each well and mixed well. The plate was incubated at room temperature for 20 minutes to allow the cells to be fully lysed. All the liquid in the plate was transferred to a 96-well microtiter plate, and the firefly luciferin value was measured with a multi-function plate reader (manufacturer: Bio Tek (USA); model: Synergy4). Dual-Glo® a Stop & Glo® Reagent with the volume equal to the volume of the initial medium (80 μl/well) was added to each well and mixed well. The plate was incubated at room temperature for 10 minutes, and the renilla luciferin value was measured. The measurement order of renilla fluorescence should be the same as that of firefly fluorescence. Curve fitting and EC50 calculation were conducted using GraphPad Prism 5 software by nonlinear regression method. The fitting equation is: Y=Bottom+(Top−Bottom)/(1+10^((Log EC50−X)*HillSlope)), wherein EC50 refers to the semi-effective concentration, Top refers to the maximum effect, Bottom refers to the blank effect, and HillSlope refers to the slope.

Structure (SMILES)	EC50
O=C(O)c1cccc(-c2nnc(N3[C@@H]4CC[C@H]3C[C@@H](OCc3c(-c5c(Cl)cccc5Cl)noc3C3CC3)C4)o2)c1 [Example 15]	< 25 nM
O=C(O)c1ccc(-c2nnc(N3[C@@H]4CC[C@H]3C[C@@H](OCc3c(-c5ccccc5OC(F)(F)F)noc3C3CC3)C4)o2)s1 [Example 25]	100 to 500 nM
O=C(O)c1ccc(-c2noc(N3[C@@H]4CC[C@H]3C[C@@H](OCc3c(-c5c(Cl)cccc5Cl)noc3C3CC3)C4)n2)cc1 [Example 1, 4-(5-((1R,3r,5S)-3-((5-cyclopropyl-3-(2,6-dichlorophenyl)-isoxazol-4-yl)methoxy)-8-azabicyclo[3.2.1]octan-8-yl)-1,2,4-oxadiazol-3-yl)benzoic acid]	< 25 nM
O=C(O)c1cccc(-c2nnc(N3[C@@H]4CC[C@H]3C[C@@H](OCc3c(-c5c(Cl)cccc5Cl)noc3C3CC3)C4)o2)n1 [Example 10, 6-(5-((1R,3r,5S)-3-((5-cyclopropyl-3-(2,6-dichlorophenyl)isoxazol-4-yl)methoxy)-8-azabicyclo[3.2.1]octan-8-yl)-1,3,4-oxadiazol-2-yl)pyridine-2-carboxylic acid]	100 to 500 nM
Cc1cc(-c2nnc(N3[C@@H]4CC[C@H]3C[C@@H](OCc3c(-c5ccccc5OC(F)(F)F)noc3C3CC3)C4)o2)ccc1C(=O)O [Example 30]	< 25 nM
O=C(O)c1cccc(-c2noc(N3[C@@H]4CC[C@H]3C[C@@H](OCc3c(-c5c(Cl)cccc5Cl)noc3C3CC3)C4)n2)n1 [Example 3]	< 25 nM
O=C(O)c1ccc(-c2nnc(N3[C@@H]4CC[C@H]3C[C@@H](OCc3c(-c5c(Cl)cccc5Cl)noc3C3CC3)C4)o2)cn1 [Example 18, 5-(5-((1R,3r,5S)-3-((5-cyclopropyl-3-(2,6-dichlorophenyl)isoxazol-4-yl)methoxy)-8-azabicyclo[3.2.1]octan-8-yl)-1,3,4-oxadiazol-2-yl)pyridine-carboxylic acid]	100 to 500 nM
O=C(O)c1ccc(-c2nnc(N3[C@@H]4CC[C@H]3C[C@@H](OCc3c(-c5ccccc5OC(F)(F)F)noc3C3CC3)C4)o2)cc1Cl [Example 23, 2-chloro-4-(5-((1R,3r,5S)-3-((5-cyclopropyl-3-(2-(trifluoromethoxy)phenyl)isoxazol-4-yl)methoxy)-8-azabicyclo[3.2.1]octan-8-yl)-1,3,4-oxadiazol-2-yl)benzoic acid]	100 to 500 nM
O=C(O)c1ccc(-c2nnc(N3[C@@H]4CC[C@H]3C[C@@H](OCc3c(-c5c(Cl)cccc5Cl)noc3C3CC3)C4)o2)c(F)c1 [Example 16, 4-(5-((1R,3r,5S)-(3-((5-cyclopropyl-3-(2,6-dichlorophenyl)isoxazol-4-yl))methoxy)-8-azabicyclo[3.2.1]octan-8-yl)-1,3,4-oxadiazol-2-yl)-3-fluorobenzoic acid]	50 to 100 nM
O=C(O)c1cc(-c2nnc(N3[C@@H]4CC[C@H]3C[C@@H](OCc3c(-c5ccccc5OC(F)(F)F)noc3C3CC3)C4)o2)cs1 [Example 34]	> 500 nM
O=C(O)c1ccc(-c2nnc(N3[C@@H]4CC[C@H]3C[C@@H](OCc3c(-c5ccccc5OC(F)(F)F)noc3C3CC3)C4)o2)cn1 [Example 31, 5-(5-((1R,3r,5S)-3-((5-cyclopropyl-3-(2-(trifluoromethoxy)phenyl)isoxazol-4-yl)methoxy)-8-azabicyclo[3.2.1]octan-8-yl)-1,3,4-oxadiazol-2-yl)pyridine-carboxylic acid]	100 to 500 nM
O=C(O)c1ccc(-c2nnc(N3[C@@H]4CC[C@H]3C[C@@H](OCc3c(-c5ccccc5OC(F)(F)F)noc3C3CC3)C4)o2)nc1 [Example 32]	> 500 nM
Cc1cc(-c2nnc(N3[C@@H]4CC[C@H]3C[C@@H](OCc3c(-c5c(Cl)cccc5Cl)noc3C3CC3)C4)o2)ccc1C(=O)O [Example 17]	< 25 nM
Cc1cc(-c2noc(N3[C@@H]4CC[C@H]3C[C@@H](OCc3c(-c5c(Cl)cccc5Cl)noc3C3CC3)C4)n2)ccc1C(=O)O [Example 7]	< 25 nM
O=C(O)c1cccc(-c2noc(N3[C@@H]4CC[C@H]3C[C@@H](OCc3c(-c5c(Cl)cccc5Cl)noc3C3CC3)C4)n2)c1 [Example 6]	< 25 nM
Cc1cc(C(=O)O)ccc1-c1noc(N2[C@@H]3CC[C@H]2C[C@@H](OCc2c(-c4c(Cl)cccc4Cl)noc2C2CC2)C3)n1 [Example 5]	< 25 nM
O=C(O)c1ccc(-c2noc(N3[C@@H]4CC[C@H]3C[C@@H](OCc3c(-c5c(Cl)cccc5Cl)noc3C3CC3)C4)n2)s1 [Example 4]	< 25 nM
O=C(O)c1ccc(-c2noc(N3[C@@H]4CC[C@H]3C[C@@H](OCc3c(-c5c(Cl)cccc5Cl)noc3C3CC3)C4)n2)cc1Cl [Example 2, 2-chloro-4-(5-((1R,3r,5S)-3-((5-cyclopropyl-3-(2,6-dichlorophenyl)isoxazol-4-yl)methoxy)-8-azabicyclo[3.2.1]octan-8-yl)-1,2,4-oxadiazol-3-yl)benzoic acid]	< 25 nM
O=C(O)c1ccc(-c2nnc(N3[C@@H]4CC[C@H]3C[C@@H](OCc3c(-c5c(Cl)cccc5Cl)noc3C3CC3)C4)o2)nc1 [Example 19, 6-(5-((1R,3r,5S)-3-((5-cyclopropyl-3-(2,6-dichlorophenyl)isoxazol-4-yl)methoxy)-8-azabicyclo[3.2.1]octan-8-yl)-1,3,4-oxadiazol-2-yl)nicotinic acid]	> 500 nM
O=C(O)c1csc(-c2nnc(N3[C@@H]4CC[C@H]3C[C@@H](OCc3c(-c5ccccc5OC(F)(F)F)noc3C3CC3)C4)o2)c1 [Example 33, 5-(5-((1R,3r,5S)-3-((5-cyclopropyl-3-(2-(trifluoromethoxy)phenyl)isoxazol-4-yl)methoxy)-8-azabicyclo[3.2.1]octan-8-yl)-1,3,4-oxadiazol-2-yl)thiophene-3-carboxylic acid]	100 to 500 nM
Cc1cc(C(=O)O)ccc1-c1nnc(N2[C@@H]3CC[C@H]2C[C@@H](OCc2c(-c4ccccc4OC(F)(F)F)noc2C2CC2)C3)o1 [Example 27]	< 25 nM
O=C(O)c1cc(-c2nnc(N3[C@@H]4CC[C@H]3C[C@@H](OCc3c(-c5c(Cl)cccc5Cl)noc3C3CC3)C4)o2)cs1 [Example 21]	100 to 500 nM
O=C(O)c1cccc(-c2nnc(N3[C@@H]4CC[C@H]3C[C@@H](OCc3c(-c5ccccc5OC(F)(F)F)noc3C3CC3)C4)o2)n1 [Example 24, 6-(5-((1R,3r,5S)-3-((5-cyclopropyl-3-(2-(trifluoromethoxy)phenyl)isoxazol-4-yl)methoxy)-8-azabicyclo[3.2.1]octan-8-yl)-1,3,4-oxadiazol-2-yl)pyridine-2-carboxylic acid]	> 500 nM
COc1cc(-c2nnc(N3[C@@H]4CC[C@H]3C[C@@H](OCc3c(-c5c(Cl)cccc5Cl)noc3C3CC3)C4)o2)ccc1C(=O)O [Example 13]	< 25 nM
